Measurements reported in US20250115943A1, “SYSTEM AND METHOD FOR ANTIMICROBIAL SUSCEPTIBILITY TESTING” (priority 2023, published 2025).
In brackets after ≈: the same amount, converted by molar mass. Like-named read-outs stand apart in the source and are kept apart here.

Experiments:
E. coli ATCC 25922 [1] = test: CytoSPAR BLAST antibiotic susceptibility test; assay type: cell-based; conditions: for MIC: Escherichia coli, 5 × 10^5 CFU/mL; for S, I, R: susceptible, intermediate, resistant category
Description: (§1) The disclosed technology, which is referred to as the CytoSPAR BLAST (Bacteria Labeling Antibiotic Susceptibility Test) system, is used to quantitatively assess bacterial minimal inhibitory concentration of antibiotics for in vitro susceptibility testing. Used as an aid in diagnosis for clinicians in determining potential treatment options for patients suspected of having a microbial infection, BLAST is intended to determine susceptibility of microorganisms to the listed antibiotics (or other antimicrobials) according to manufacturer's standards. The system is intended for use with clinical isolates from liquid culture and colonies grown on agar (solid medium) or directly from urine samples. Certain implementations of BLAST determine antibiotic susceptibility for a wide range of bacteria obtained from various types of patient samples, including samples from individuals suffering from urinary tract infections. The disclosed technology includes a high-throughput assay that directly detects bacterial susceptibility to a library of frequently used antibiotics and covers both Gram-negative and Gram-positive bacteria.
(§2) The test incorporates a non-canonical amino acid (ncAA) into newly produced proteins. The incorporated ncAA includes a reactive group which allows a specific modification and detection of the living bacteria. The assay involves bacterial incorporation of the ncAA, a chemical reaction between a reactive group and a fluorophore-tagged ligand, and detection of the newly fluorescent-tagged bacteria using a fluorescent plate reader or functionally similar device. The ncAA is added to bacterial growth media and is incorporated into newly synthesized bacterial proteins. The reactive groups on the ncAA are not naturally found in bacteria and act as a specific reactive group for bacteria undergoing active protein synthesis. […] The entire process is performed in a microtiter filter plate for high-throughput scale-up. Alternatively, a normal 96-well plate can also be used in which case centrifugation is used to wash the plate instead of filtration.
(§3) In an example embodiment, bacterial samples are first diluted and incubated in acclimatization media. After treatment with one or more antimicrobials, the ncAA is added and is taken up by living bacteria during protein biosynthesis in a process called labeling. […] The Click-Chemistry reaction between the alkyne group of the ncAA and the azide group of the fluorophore-tagged ligand requires the presence of copper in the reduced state-copper (I). In other implementations, the functional groups of the click chemistry reaction can be changed so that the ncAA has the azide group and the dye has the alkyne group. […] Other reducing agents may be used in the BLAST assay, for example, aldoses (sugars) including glyceraldehyde, glucose, and ribose to replace sodium ascorbate. Likewise, alternate chelators may be used (e.g., histidine in place of BTTAA). In some implementations, metal-free click chemistry reactions are performed without using copper.
(§4) Using the BLAST system, tests can be performed on isolates or direct urine samples. Isolates may be from urine, blood, or other body fluids. Isolated bacteria may be either Gram-positive or Gram-negative. In an example implementation, living bacterial samples in acclimatization media (Buffer A) are distributed in a microtiter filter plate, wherein certain predetermined wells include antibiotics of interest at different concentrations. These antibiotics are arrayed with increasing concentrations in adjacent wells so that the bacterial response can be measured against each specific concentration. The response is measured quantitatively, and a value that corresponds to the ability of the bacteria to metabolize and grow is measured.

E. coli LSI 770 [2] = test: CytoSPAR BLAST antibiotic susceptibility test; assay type: cell-based; conditions: for MIC: Escherichia coli
Description: as §1, §2, §3, §4

K. pneumoniae LSI 4552 [3] = test: CytoSPAR BLAST antibiotic susceptibility test; assay type: cell-based
Description: as §1, §2, §3, §4

K. pneumoniae LSI CT1045 [4] = test: CytoSPAR BLAST antibiotic susceptibility test; assay type: cell-based
Description: as §1, §2, §3, §4

P. mirabilis LSI 4698 [5] = test: CytoSPAR BLAST antibiotic susceptibility test; assay type: cell-based
Description: as §1, §2, §3, §4

P. mirabilis LSI 4933 [6] = test: CytoSPAR BLAST antibiotic susceptibility test; assay type: cell-based
Description: as §1, §2, §3, §4

S. aureus ATCC 29213 [7] = test: CytoSPAR BLAST antibiotic susceptibility test; assay type: cell-based; conditions: for S, I, R: susceptible, intermediate, resistant category; for MIC: Staphylococcus aureus
Description: as §1, §2, §3, §4

E. coli LSI 770 [8] = test: reference broth microdilution (rBMD); assay type: cell-based; conditions: Escherichia coli, LSI770
Procedure: (§5) Following optimization of the BLAST assay, two other tests were performed in which 12 antibiotics (covering different classes) and 8 bacterial strains (Gram-positive and Gram-negative) were assayed using the same method as described above. Different bacterial strains were tested against different antibiotics and for each pair tested, the BLAST MIC value was compared to the CLSI QC range where available, or to the reference broth microdilution (rBMD) MIC which was determined in parallel with the BLAST assay following the CLSI protocols (see references [9]).
(§6) The inoculated urine cultures were incubated overnight at 35+2° C. Each urine culture was centrifuged, and the sediment used to prepare the BLAST inoculum of 5.0×10^5 CFU/mL to start the assay as described in the protocols section. […] The spiked urine samples were tested in parallel with isolates and the resultant BLAST MIC values were compared. In addition to the BLAST test, all the samples were also tested using the reference broth microdilution (rBMD) method and the MIC values were compared.

S. aureus ATCC 29213 [9] = test: reference broth microdilution (rBMD); assay type: cell-based
Procedure: as §5, §6

K. pneumoniae LSI 4552 [10] = test: reference broth microdilution (rBMD); assay type: cell-based; conditions: Klebsiella pneumoniae, LSI4552
Procedure: as §5

K. pneumoniae LSI CT1045 [11] = test: reference broth microdilution (rBMD); assay type: cell-based; conditions: Klebsiella pneumoniae, LSICT1045
Procedure: as §5

P. mirabilis LSI 4933 [12] = test: reference broth microdilution (rBMD); assay type: cell-based; conditions: Proteus mirabilis, LSI4933
Procedure: as §5

P. mirabilis LSI 4698 [13] = test: reference broth microdilution (rBMD); assay type: cell-based; conditions: Proteus mirabilis, LSI4698
P. aeruginosa ATCC 27853 = test: CytoSPAR BLAST antibiotic susceptibility test; assay type: cell-based; conditions: susceptible, intermediate, resistant category
Description: as §1, §2, §3, §4

E. coli strain #14 (CDC) [14] = test: microbe, parasite or virus in culture; conditions: Escherichia coli, read-out: BLAST MIC
Description: (§7) The disclosed technology, which is referred to as the CytoSPAR BLAST (Bacteria Labeling Antibiotic Susceptibility Test) system, is used to quantitatively assess bacterial minimal inhibitory concentration of antibiotics for in vitro susceptibility testing. Used as an aid in diagnosis for clinicians in determining potential treatment options for patients suspected of having a microbial infection, BLAST is intended to determine susceptibility of microorganisms to the listed antibiotics (or other antimicrobials) according to manufacturer's standards. The system is intended for use with clinical isolates from liquid culture and colonies grown on agar (solid medium) or directly from urine samples. […]
(§8) The test incorporates a non-canonical amino acid (ncAA) into newly produced proteins. […] The assay involves bacterial incorporation of the ncAA, a chemical reaction between a reactive group and a fluorophore-tagged ligand, and detection of the newly fluorescent-tagged bacteria using a fluorescent plate reader or functionally similar device. […]
(§9) Using the BLAST system, tests can be performed on isolates or direct urine samples. […] These antibiotics are arrayed with increasing concentrations in adjacent wells so that the bacterial response can be measured against each specific concentration. […]

[15] = tested on: E. coli strain #551 (CDC); test: microbe, parasite or virus in culture; conditions: Escherichia coli, read-out: BLAST MIC, E. coli resistant strain (CDC 551); […]10^8 CFUs/mL; cut-off 0.7; FIG. 11C
Description: as §7, §8, §9

E. coli = conditions: cited from earlier work
E. coli ATCC 25922 [16] = conditions: E. coli strain #25922 (ATCC); strain designation, not a BLAST readout; cited from earlier work
[17] = tested on: E. coli strain #551 (CDC); conditions: strain designation, not a BLAST readout; cited from earlier work
E. coli strain #14 (CDC) [18] = conditions: strain designation, not a BLAST readout; cited from earlier work
S. saprophyticus = conditions: cited from earlier work
[19] = tested on: E. coli, S. saprophyticus and S. aureus; conditions: for E. coli, S. saprophyticus and S. aureus as reported by the FDA and CLSI (Table 5); cited from earlier work
[20] = susceptible, intermediate, resistant category

SMILES: Cc1nnc(SCC2=C(C(=O)O)N3C(=O)[C@@H](NC(=O)Cn4cnnn4)[C@H]3SC2)s1 [Cefazolin, cefazolin]
- BLAST MIC (E. coli ATCC 25922 [1]; 5×10^6 CFUs/mL, cutoff 0.8, FIGS. 16-18): 2.0 µg/mL
- MIC (E. coli ATCC 25922 [1]; ATCC25922, Table 8, isolates, read-out: MIC BLAST Isolates): 4.44 µg/mL (≈ 9.77 µM)
- MIC (E. coli ATCC 25922 [1]; ATCC25922, Table 8, spiked urine sample, read-out: MIC BLAST Spiked Urine): 1.11 µg/mL (≈ 2.44 µM)
- S, I, R (E. coli ATCC 25922 [1]): Susceptible
- S, I, R (E. coli LSI 770 [2]; E. coli LSI 770, susceptible, intermediate, resistant category): Resistant
- MIC (E. coli LSI 770 [2]; LSI770, read-out: MIC BLAST Isolates): > 142 µg/mL
- MIC (E. coli LSI 770 [2]; LSI770, read-out: MIC BLAST Spiked Urine): > 142 µg/mL
- MIC (E. coli LSI 770 [2]; LSI770, Table 7, E. coli LSI 770, read-out: MIC BLAST): > 142 µg/mL
- MIC (K. pneumoniae LSI 4552 [3]; Klebsiella pneumoniae, LSI4552, Table 7): 2 µg/mL (≈ 4.4 µM)
- S, I, R (K. pneumoniae LSI 4552 [3]; [20]): Susceptible
- MIC (K. pneumoniae LSI CT1045 [4]; Klebsiella pneumoniae, LSICT1045, Table 7): > 142 µg/mL
- S, I, R (K. pneumoniae LSI CT1045 [4]; [20]): Resistant
- MIC (P. mirabilis LSI 4698 [5]; Proteus mirabilis, LSI4698, Table 7): 4.4 µg/mL (≈ 9.68 µM)
- S, I, R (P. mirabilis LSI 4698 [5]; [20]): Susceptible
- MIC (P. mirabilis LSI 4933 [6]; Proteus mirabilis, LSI4933, Table 7): 4.4 µg/mL (≈ 9.68 µM)
- S, I, R (P. mirabilis LSI 4933 [6]; [20]): Susceptible
- BLAST MIC (S. aureus ATCC 29213 [7]; S. aureus ATCC 29213, FIG. 19): < 0.125 µg/mL
- S, I, R (S. aureus ATCC 29213 [7]; S. aureus ATCC 29213): Susceptible
- MIC (S. aureus ATCC 29213 [7]; ATCC29213, S. aureus ATCC 29213, 5×10^6 CFUs/mL, cutoff 0.8, FIGS. 19-21, read-out: BLAST MIC): < 0.125 µg/mL
- MIC (S. aureus ATCC 29213 [7]; ATCC29213, Table 7, S. aureus ATCC 29213, read-out: MIC BLAST): 0.14 µg/mL (≈ 0.308 µM)
- MIC (S. aureus ATCC 29213 [7]; ATCC29213, Table 8, S. aureus ATCC 29213, isolates, 5 × 10^5 CFU/mL, read-out: MIC BLAST Isolates): 0.14 µg/mL (≈ 0.308 µM)
- MIC (S. aureus ATCC 29213 [7]; ATCC29213, Table 8, S. aureus ATCC 29213, spiked urine sample, 5 × 10^5 CFU/mL, read-out: MIC BLAST Spiked Urine): 0.28 µg/mL (≈ 0.616 µM)
- MIC (S. aureus ATCC 29213 [7]; ATCC29213, read-out: MIC BLAST, Table 6, S. aureus ATCC 29213, optimized BLAST, cutoff 0.8): 0.125 µg/mL (≈ 0.275 µM)
- MIC (E. coli LSI 770 [8]): > 256 µg/mL
- MIC (S. aureus ATCC 29213 [9]; Staphylococcus aureus, ATCC29213): 0.5 µg/mL (≈ 1.1 µM)
- MIC rBMD (S. aureus ATCC 29213 [9]; Table 8, S. aureus ATCC 29213, geometric mean MIC rounded to nearest 2-fold dilution, n = 3): 0.5 µg/mL (≈ 1.1 µM)
- MIC (K. pneumoniae LSI 4552 [10]): 8 µg/mL (≈ 17.6 µM)
- MIC (K. pneumoniae LSI CT1045 [11]): > 256 µg/mL
- MIC (P. mirabilis LSI 4933 [12]): 8 µg/mL (≈ 17.6 µM)
- MIC (P. mirabilis LSI 4698 [13]): 16 µg/mL (≈ 35.2 µM)

SMILES: O=C1CN(/N=C/c2ccc([N+](=O)[O-])o2)C(=O)N1 [Nitrofurantoin, nitrofurantoin]
- S, I, R (E. coli ATCC 25922 [1]): Susceptible
- S, I, R (P. aeruginosa ATCC 27853): Resistant
- S, I, R (S. aureus ATCC 29213 [7]; S. aureus ATCC 29213): Susceptible
- MIC (S. aureus ATCC 29213 [7]; ATCC29213, S. aureus ATCC 29213, 5×10^5 CFUs/mL, FIG. 15, read-out: BLAST MIC): 4 µg/mL (≈ 16.8 µM)
- MIC (S. aureus ATCC 29213 [7]; ATCC29213, Table 6, S. aureus ATCC 29213, optimized BLAST, cutoff 0.8, read-out: MIC BLAST): 4 µg/mL (≈ 16.8 µM)
- MIC (E. coli strain #14 (CDC) [14]): 32 µg/mL (≈ 134 µM)
- MIC [15]: 32 µg/mL (≈ 134 µM)
- CLSI breakpoint I (E. coli; intermediate): 64 µg/mL
- FDA breakpoint I (E. coli; intermediate): 64 µg/mL
- CLSI breakpoint S (E. coli; susceptible): 32 µg/mL
- FDA breakpoint S (E. coli; susceptible): 32 µg/mL
- susceptibility of the strain as listed (E. coli ATCC 25922 [16]): Susceptible
- susceptibility of the strain as listed [17]: Resistant
- susceptibility of the strain as listed (E. coli strain #14 (CDC) [18]): Intermediate resistance
- CLSI breakpoint I (S. saprophyticus; intermediate): 64 µg/mL
- FDA breakpoint I (S. saprophyticus; intermediate): 64 µg/mL
- CLSI breakpoint S (S. saprophyticus; susceptible): 32 µg/mL
- FDA breakpoint S (S. saprophyticus; susceptible): 32 µg/mL
- CLSI QC range [19]: 4 to 16 µg/mL
